Values of other authors, collected in patent US20190070136A1 (ASPIRO PHARMA LIMITED, priority 2017, published 2019).

O=NN(CCCl)C(=O)NCCCl [Carmustine, 1,3-bis (2-chloroethyl)-1-nitrosourea]
Log P: 1.53
